What was measured:
Assay in all cases: kinase selectivity panel
Type in all cases: biochemical
CDK6/cyclinD3 = target: T1, CDK6/cyclinD3 (Homo sapiens, UniProt Q00534); conditions: read-out: percentage of control activity (POC), CDK6/cyclinD3
T1 construct: purchased Eurofins Pharma Discovery Services (KinaseProfiler; Cerep BioPrint panel)
How it was run: (§1)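 Single-point screen: 10 μM, duplicate, 125-kinase panel; follow-up IC50 from 9-point titration in duplicate for chosen hits.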

CSK = target: T2, CSK (Homo sapiens, UniProt P41240); conditions: read-out: percentage of control activity (POC), CSK
T2 construct: purchased Eurofins Pharma Discovery Services (KinaseProfiler; Cerep BioPrint panel)
How it was run: as §1

PRAK = target: T3, PRAK (Homo sapiens, UniProt Q8IW41); conditions: read-out: percentage of control activity (POC), PRAK
T3 construct: purchased Eurofins Pharma Discovery Services (KinaseProfiler; Cerep BioPrint panel)
T3 sequence (Q8IW41 1-473): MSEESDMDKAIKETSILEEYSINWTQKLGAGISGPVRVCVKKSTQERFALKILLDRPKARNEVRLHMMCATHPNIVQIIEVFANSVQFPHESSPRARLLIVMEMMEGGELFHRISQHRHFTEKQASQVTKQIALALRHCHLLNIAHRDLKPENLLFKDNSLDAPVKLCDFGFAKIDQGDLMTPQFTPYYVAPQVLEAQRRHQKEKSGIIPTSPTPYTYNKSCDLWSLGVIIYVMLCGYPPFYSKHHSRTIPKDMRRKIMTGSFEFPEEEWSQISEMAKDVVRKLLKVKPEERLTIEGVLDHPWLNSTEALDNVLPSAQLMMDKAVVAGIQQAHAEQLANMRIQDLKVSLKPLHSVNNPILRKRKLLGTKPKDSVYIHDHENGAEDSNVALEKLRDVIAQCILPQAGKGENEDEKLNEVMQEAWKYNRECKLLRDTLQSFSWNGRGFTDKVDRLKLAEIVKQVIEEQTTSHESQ
How it was run: as §1

Rsk4 = target: T4, Rsk4 (Homo sapiens, UniProt Q9UK32); conditions: read-out: percentage of control activity (POC), Rsk4
T4 construct: purchased Eurofins Pharma Discovery Services (KinaseProfiler; Cerep BioPrint panel)
T4 sequence (Q9UK32 whole entry): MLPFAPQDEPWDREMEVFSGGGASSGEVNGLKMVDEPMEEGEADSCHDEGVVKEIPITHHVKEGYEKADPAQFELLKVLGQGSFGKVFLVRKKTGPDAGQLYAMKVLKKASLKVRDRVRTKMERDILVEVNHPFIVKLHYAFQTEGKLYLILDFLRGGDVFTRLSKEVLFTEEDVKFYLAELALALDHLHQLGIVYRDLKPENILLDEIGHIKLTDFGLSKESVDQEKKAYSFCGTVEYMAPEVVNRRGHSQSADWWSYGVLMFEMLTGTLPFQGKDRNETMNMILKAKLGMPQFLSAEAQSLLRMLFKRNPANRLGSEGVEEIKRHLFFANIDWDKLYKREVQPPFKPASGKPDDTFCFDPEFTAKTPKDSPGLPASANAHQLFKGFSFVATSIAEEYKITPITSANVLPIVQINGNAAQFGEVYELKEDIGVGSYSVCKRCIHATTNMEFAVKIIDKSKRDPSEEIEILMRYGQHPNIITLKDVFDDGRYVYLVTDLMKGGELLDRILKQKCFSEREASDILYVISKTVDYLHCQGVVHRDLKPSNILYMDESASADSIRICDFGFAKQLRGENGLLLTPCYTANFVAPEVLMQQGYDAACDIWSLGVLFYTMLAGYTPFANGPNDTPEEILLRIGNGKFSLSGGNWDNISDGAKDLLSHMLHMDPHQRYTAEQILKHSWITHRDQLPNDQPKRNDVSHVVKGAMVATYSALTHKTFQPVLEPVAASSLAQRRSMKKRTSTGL
How it was run: as §1

MKK7β = target: T5, MKK7β (Homo sapiens, UniProt O14733); conditions: read-out: percentage of control activity (POC), MKK7β
T5 construct: purchased Eurofins Pharma Discovery Services (KinaseProfiler; Cerep BioPrint panel)
T5 sequence (O14733 1-419): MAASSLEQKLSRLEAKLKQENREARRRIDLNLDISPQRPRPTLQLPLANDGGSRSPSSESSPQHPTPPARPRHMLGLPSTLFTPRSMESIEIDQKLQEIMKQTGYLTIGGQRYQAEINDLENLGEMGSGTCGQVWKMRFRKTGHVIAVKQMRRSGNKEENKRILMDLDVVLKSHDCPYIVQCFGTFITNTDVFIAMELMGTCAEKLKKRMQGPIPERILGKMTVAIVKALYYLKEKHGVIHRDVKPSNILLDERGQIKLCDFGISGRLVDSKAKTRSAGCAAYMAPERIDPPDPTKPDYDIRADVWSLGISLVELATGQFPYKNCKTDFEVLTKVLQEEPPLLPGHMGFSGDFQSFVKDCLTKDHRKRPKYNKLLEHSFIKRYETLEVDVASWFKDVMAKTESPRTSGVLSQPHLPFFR
How it was run: as §1

SGK = target: T6, SGK (Homo sapiens, UniProt O00141); conditions: read-out: percentage of control activity (POC), SGK
T6 construct: purchased Eurofins Pharma Discovery Services (KinaseProfiler; Cerep BioPrint panel)
T6 sequence (O00141 1-431): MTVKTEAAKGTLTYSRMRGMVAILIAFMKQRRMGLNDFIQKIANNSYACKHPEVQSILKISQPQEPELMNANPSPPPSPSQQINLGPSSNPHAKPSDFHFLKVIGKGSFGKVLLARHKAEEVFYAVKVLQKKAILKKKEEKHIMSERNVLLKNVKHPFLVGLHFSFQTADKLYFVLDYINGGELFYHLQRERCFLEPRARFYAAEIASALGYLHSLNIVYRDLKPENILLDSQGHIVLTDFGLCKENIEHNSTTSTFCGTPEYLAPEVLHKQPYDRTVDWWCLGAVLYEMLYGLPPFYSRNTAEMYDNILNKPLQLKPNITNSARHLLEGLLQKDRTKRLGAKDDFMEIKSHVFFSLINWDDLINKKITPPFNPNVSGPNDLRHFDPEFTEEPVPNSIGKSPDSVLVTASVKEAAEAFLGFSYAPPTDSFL
How it was run: as §1

Ret = target: T7, Ret (Homo sapiens, UniProt P07949); conditions: read-out: percentage of control activity (POC), Ret
T7 construct: purchased Eurofins Pharma Discovery Services (KinaseProfiler; Cerep BioPrint panel)
T7 sequence (P07949 29-1114): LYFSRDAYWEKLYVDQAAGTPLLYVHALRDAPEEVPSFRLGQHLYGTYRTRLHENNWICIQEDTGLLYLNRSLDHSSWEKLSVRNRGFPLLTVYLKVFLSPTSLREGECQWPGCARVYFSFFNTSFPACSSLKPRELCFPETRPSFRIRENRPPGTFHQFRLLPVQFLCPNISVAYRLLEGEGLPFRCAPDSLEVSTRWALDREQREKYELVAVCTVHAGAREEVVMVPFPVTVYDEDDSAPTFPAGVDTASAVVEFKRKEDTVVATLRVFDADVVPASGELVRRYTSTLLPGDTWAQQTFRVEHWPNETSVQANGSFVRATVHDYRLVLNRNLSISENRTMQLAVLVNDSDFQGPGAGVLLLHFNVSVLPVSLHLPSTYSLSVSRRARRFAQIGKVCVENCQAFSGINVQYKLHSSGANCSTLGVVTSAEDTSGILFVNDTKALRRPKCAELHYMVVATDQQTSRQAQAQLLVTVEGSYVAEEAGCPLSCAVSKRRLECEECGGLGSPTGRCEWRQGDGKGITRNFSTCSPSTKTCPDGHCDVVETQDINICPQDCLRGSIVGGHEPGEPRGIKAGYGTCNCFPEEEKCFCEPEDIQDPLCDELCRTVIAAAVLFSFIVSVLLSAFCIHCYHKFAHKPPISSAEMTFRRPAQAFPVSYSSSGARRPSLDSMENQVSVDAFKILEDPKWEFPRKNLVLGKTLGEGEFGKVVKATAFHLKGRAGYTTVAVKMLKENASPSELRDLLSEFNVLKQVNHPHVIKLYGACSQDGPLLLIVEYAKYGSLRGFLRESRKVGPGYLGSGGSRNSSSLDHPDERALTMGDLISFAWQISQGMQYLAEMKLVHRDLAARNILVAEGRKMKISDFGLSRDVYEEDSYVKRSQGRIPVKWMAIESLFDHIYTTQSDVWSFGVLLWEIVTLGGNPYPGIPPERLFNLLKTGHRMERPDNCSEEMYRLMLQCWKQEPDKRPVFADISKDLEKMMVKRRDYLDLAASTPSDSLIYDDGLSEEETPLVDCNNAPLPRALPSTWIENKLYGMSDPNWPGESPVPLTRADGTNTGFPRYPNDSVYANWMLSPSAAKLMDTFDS
How it was run: as §1

Fyn = target: T8, Fyn (Homo sapiens, UniProt P06241); conditions: read-out: percentage of control activity (POC), Fyn
T8 construct: purchased Eurofins Pharma Discovery Services (KinaseProfiler; Cerep BioPrint panel)
T8 sequence (P06241 whole entry): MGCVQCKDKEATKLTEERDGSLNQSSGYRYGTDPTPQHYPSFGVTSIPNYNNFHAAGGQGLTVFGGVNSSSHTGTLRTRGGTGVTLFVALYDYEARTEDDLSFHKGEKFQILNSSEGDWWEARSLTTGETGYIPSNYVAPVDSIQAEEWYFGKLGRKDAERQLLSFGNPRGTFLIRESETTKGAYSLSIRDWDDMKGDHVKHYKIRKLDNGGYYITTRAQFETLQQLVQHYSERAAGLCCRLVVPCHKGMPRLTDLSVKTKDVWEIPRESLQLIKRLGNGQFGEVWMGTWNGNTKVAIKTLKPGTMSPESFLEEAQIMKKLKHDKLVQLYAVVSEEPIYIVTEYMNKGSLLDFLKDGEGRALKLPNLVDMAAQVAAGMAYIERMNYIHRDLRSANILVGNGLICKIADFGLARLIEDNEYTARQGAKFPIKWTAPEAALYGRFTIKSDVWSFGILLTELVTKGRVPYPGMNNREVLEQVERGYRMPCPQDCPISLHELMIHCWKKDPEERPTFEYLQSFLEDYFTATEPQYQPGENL
How it was run: as §1

JNK3 = target: T9, JNK3 (Homo sapiens, UniProt P53779); conditions: read-out: percentage of control activity (POC), JNK3
T9 construct: purchased Eurofins Pharma Discovery Services (KinaseProfiler; Cerep BioPrint panel)
T9 sequence (P53779 whole entry): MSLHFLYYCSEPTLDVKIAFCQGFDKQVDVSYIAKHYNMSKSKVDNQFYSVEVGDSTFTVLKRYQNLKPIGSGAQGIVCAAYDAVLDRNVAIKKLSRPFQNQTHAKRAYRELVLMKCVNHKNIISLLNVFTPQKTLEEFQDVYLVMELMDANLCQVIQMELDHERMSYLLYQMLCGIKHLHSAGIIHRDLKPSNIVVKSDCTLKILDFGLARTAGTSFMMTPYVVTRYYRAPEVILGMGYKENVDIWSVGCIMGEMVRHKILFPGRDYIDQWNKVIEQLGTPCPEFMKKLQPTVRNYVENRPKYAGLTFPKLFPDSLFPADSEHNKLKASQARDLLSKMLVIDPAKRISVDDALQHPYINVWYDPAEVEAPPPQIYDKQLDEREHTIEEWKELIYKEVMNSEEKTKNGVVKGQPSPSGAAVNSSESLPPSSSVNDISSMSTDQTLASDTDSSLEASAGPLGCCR
How it was run: as §1

PI3K (p110b/p85a) = target: T10, PI3K (p110b/p85a) (Homo sapiens, UniProt P42338); conditions: read-out: percentage of control activity (POC), PI3K (p110b/p85a)
T10 construct: purchased Eurofins Pharma Discovery Services (KinaseProfiler; Cerep BioPrint panel)
How it was run: as §1

cKit = target: T11, cKit (Homo sapiens, UniProt P10721); conditions: read-out: percentage of control activity (POC), cKit
T11 construct: purchased Eurofins Pharma Discovery Services (KinaseProfiler; Cerep BioPrint panel)
T11 sequence (P10721 26-976): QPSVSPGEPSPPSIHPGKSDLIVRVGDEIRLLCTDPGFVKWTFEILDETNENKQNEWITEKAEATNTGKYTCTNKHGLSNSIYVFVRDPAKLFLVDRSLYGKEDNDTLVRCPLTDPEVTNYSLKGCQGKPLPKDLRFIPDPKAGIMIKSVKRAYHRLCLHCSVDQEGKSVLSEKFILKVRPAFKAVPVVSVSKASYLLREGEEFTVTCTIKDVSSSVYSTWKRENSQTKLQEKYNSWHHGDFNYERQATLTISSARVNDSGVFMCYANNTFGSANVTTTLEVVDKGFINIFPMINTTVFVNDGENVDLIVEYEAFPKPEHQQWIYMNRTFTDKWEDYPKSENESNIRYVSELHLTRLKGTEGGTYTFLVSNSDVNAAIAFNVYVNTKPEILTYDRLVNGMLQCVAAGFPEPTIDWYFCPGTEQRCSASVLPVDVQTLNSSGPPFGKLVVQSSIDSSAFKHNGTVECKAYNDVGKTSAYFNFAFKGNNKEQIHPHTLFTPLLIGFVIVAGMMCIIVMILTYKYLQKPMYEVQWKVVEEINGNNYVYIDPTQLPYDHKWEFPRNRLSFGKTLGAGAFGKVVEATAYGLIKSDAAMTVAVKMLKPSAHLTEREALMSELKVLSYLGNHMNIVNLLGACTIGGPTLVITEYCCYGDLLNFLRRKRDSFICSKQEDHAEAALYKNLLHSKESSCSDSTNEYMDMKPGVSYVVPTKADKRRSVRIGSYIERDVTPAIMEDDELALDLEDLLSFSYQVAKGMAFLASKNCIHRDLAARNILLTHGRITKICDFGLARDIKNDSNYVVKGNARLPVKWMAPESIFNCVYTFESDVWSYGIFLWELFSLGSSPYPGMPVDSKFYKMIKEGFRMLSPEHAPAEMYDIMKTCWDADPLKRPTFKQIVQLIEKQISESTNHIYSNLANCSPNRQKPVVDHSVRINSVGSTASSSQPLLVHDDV
How it was run: as §1

T1 sequence (Q00534 whole entry): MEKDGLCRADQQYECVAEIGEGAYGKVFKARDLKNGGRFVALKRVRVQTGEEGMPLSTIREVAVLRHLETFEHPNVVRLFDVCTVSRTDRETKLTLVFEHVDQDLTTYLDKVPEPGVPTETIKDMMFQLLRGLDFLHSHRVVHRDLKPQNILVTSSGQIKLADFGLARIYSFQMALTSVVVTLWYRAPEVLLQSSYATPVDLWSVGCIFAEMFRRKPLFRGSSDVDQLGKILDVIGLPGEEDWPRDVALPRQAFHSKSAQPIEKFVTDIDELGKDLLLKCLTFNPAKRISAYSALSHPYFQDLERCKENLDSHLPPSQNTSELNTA
T1 sequence (P30281 whole entry partner): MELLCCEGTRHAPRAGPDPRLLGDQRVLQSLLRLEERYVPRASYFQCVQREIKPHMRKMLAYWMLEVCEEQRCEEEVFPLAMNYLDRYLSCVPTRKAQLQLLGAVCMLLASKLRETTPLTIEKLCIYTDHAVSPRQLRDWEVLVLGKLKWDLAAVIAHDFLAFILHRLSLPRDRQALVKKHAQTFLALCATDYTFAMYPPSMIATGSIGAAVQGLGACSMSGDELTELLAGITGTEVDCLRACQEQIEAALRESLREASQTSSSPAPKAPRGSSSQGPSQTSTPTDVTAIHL

| Compound | remaining activity at 10 µM (CDK6/cyclinD3) | remaining activity at 10 µM (CSK) | remaining activity at 10 µM (PRAK) | remaining activity at 10 µM (Rsk4) | remaining activity at 10 µM (MKK7β) | remaining activity at 10 µM (SGK) | remaining activity at 10 µM (Ret) | remaining activity at 10 µM (Fyn) | remaining activity at 10 µM (JNK3) | remaining activity at 10 µM (PI3K (p110b/p85a)) | remaining activity at 10 µM (cKit) |
| --- | --- | --- | --- | --- | --- | --- | --- | --- | --- | --- | --- |
| CC(C)(C)N1CCC(c2cc(-c3ccc(F)cc3Cl)c3cc[n+]([O-])c(-c4c(Cl)cccc4Cl)c3n2)CC1 [compound 2] | 102% | 95% | 107% | 102% | 110% | 105% | 100% | 100% | 97% | 92% | 96% |
| Cn1cc(-c2cccc(-c3nc(C(=O)NC4C5CC6CC4CC(O)(C6)C5)c(N)nc3N)c2)cn1 (stereo not shown) [compound 4] | 93% | 94% | 83% | 110% | 101% | 96% | 63% | 81% | 72% | 71% | 102% |
| CS(=O)(=O)N1CCN(c2ccc(Nc3ncc(C(N)=O)c(NC4CC4)n3)cc2)CC1 [compound 5] | 23% | 74% | 85% | 2% | 7% | 64% | -1% | 10% | -4% | 93% | 1% |

More lines, now with the values ahead:

| remaining activity at 10 µM (CDK6/cyclinD3) | remaining activity at 10 µM (CSK) | remaining activity at 10 µM (PRAK) | remaining activity at 10 µM (Rsk4) | remaining activity at 10 µM (MKK7β) | remaining activity at 10 µM (SGK) | remaining activity at 10 µM (Ret) | remaining activity at 10 µM (Fyn) | remaining activity at 10 µM (JNK3) | remaining activity at 10 µM (PI3K (p110b/p85a)) | remaining activity at 10 µM (cKit) | Compound |
| --- | --- | --- | --- | --- | --- | --- | --- | --- | --- | --- | --- |
| 97% | 107% | 65% | 103% | 116% | 99% | 89% | 97% | 65% | 86% | 88% | Cc1ccc(C(=O)NCC2CC2)cc1-c1ccc2c(c1)NC(=O)C21CCCC1 [compound 3] |
| 100% | 88% | 56% | 131% | 112% | 114% | 71% | 99% | 75% | 87% | 92% | COc1c(NC(=O)c2ccc(C)c(-c3nnc4c(NCC(C)(C)C)nccn34)c2)cc(C(C)(C)C)cc1NS(C)(=O)=O [compound 7, reference compound] |

— article PMC5761851, “Application of a phenotypic drug discovery strategy to identify biological and chemical starting points for inhibition of TSLP production in lung epithelial cells” (PLoS ONE, 2018)
